Patent US20190202774A1, “BIARYL COMPOUNDS AS ANTIMICROBIAL AND CHEMOTHERAPEUTIC AGENTS” (priority 2015, published 2019)
≈ marks a conversion by molar mass, not a printed value. Entries after “also recorded” stand apart in the source; their conditions may differ. Counter-ions that a name gives are not always drawn. Like-named read-outs stand apart in the source and are kept apart here.

Legend:
MRSA strain USA300 [1] = test: DiSC3(5) membrane permeabilization; format: cell-based, Staphylococcus aureus; details: positive control, 100 nM
Experimental: Biaryl compounds and their analogues have been reported to be membrane active agents (Isnansetyo and Kamei, 2003 and Kamei et al., 2003). An experiment was performed to verify the membrane permeabilization activity of biaryl compound. C58 using a fluorescent dye, 3,3′-Dipropylthiacarbocyanine iodide (DiSC3(5)). The fluorescence signal from DiSC3(5) is in a quenched state when it interacts with the hydrophobic region of the cell membrane. Upon disruption of the membrane, DiSC3(5) is released and regains its fluorescent activity, which is measured as a fluorescence signal (RFU).

A549 = test: Lung cancer cell survival, A549; format: cell-based; details: 72 hour incubation, non-linear curve fit
Experimental: (§1) The IC50 values generated using a non-linear curve fit with lung cancer cell lines, A549, H460, H2122, and H2073 are listed in Table 10. Experiments were performed using C58, C58-2, C59, C59-2, C119, and acetylated C119 (C119-2). […] Additionally, these concentrations are clinically achievable for treatment of lung cancer and a detailed structure activity relationship experiments needs to be performed to identify promising anticancer candidates.

H2122 = test: Lung cancer cell survival, H2122; format: cell-based; details: 72 hour incubation, non-linear curve fit
Experimental: as §1

H2073 = test: Lung cancer cell survival, H2073; format: cell-based; details: 72 hour incubation, non-linear curve fit
Experimental: as §1

H460 = test: Lung cancer cell survival, H460; format: cell-based; details: 72 hour incubation, non-linear curve fit
Experimental: as §1

[2] = system: human lung airway epithelial cells (16HBE); details: 24-h incubation, non-linear curve fit
Experimental: Finally, toxicity of biaryl compounds was tested against human lung airway epithelial cells (16HBE), human dermal fibroblasts, and J774.A1 murine macrophages using an ALAMARBLUE® Cell Viability Assay. Biaryl compounds, C58, acetylated C58 (C58-2), C59, C59-2, C59Na, and C59Li were incubated with cells for 24 hours and an ALAMARBLUE® Cell Viability Assay was performed to determine cell viability relative to untreated controls (FIGS. 13A-13C). Cell viability curves were analyzed using non-linear curve fit to yield the inhibitory concentration at median cell survival (LD50) for all cell lines (Table 3).
Next, the toxicity of lead candidates was tested against human lung airway epithelial cells (16HBE) and human dermal fibroblasts (HDF) using an alamarBlue® Cell Viability Assay.

[3] = system: MRSA strains USA300, 0606, 0608, 0634, 0641, and 0646; test: MIC/MBC against six MRSA strains (variants of C58/C59, pH, DMSO); format: cell-based, Staphylococcus aureus
Experimental: Six MRSA strains, USA300, 0606, 0608, 0634, 0641, and 0646 were chosen based on their activity against biaryl compounds and vancomycin to determine structure-activity relationship of biaryl compounds. The effect of phenolic group on the activity of biaryl compounds was tested by modifying C59. First, the phenolic group was protected by acetylation to yield an acetylated C59 (C59-2) (FIG. 7B). Additional variants of C59, in the form of sodium and lithium salts were synthesized by incubation with sodium hydroxide and lithium hydroxide (FIGS. 7C and 7D). Antimicrobial activity of these deprotonated, water-soluble sodium (C59Na) and lithium (C59Li) salts, and acetylated derivative of C59 was tested against 6 MRSA strains and compared to the parent compound, C59 (FIGS. 8A-8D). Results from this comparative experiment indicate the contribution of phenolic group/phenoxide ion to the antimicrobial activity.
Further investigation into activity of these compounds under acidic pH conditions also points towards the role of phenolic group. An effective antimicrobial should be active under a wide range of pH conditions, including the physiological pH of 7.4. Localized pH in an infection is often lower than the physiological pH, and may be as low as 5.5 (Radovic-Moreno et al., 2012). Additionally, pH varies among organs (Radovic-Moreno et al., 2012). For example, pH in the bladder or on the skin is found to be between 4.5 and 8.0, or 4.0 and 5.5, respectively (Radovic-Moreno et al., 2012). […] The activity of all biaryl compounds is enhanced by at least four- to eight-fold with reduction in pH from 7.4 to 5.5.
Water soluble sodium and lithium salts of C59 (C59Na and C59Li) and their antimicrobial activity against six MRSA strains are reported above. A sodium salt of C58 (C58Na) was prepared and evaluated efficacy of this compound against these six MRSA strains. […] The poor activity of C58Na may be a result of poor stability of C58Na compared with C59Na and C59Li.

[4] = system: erythrocytes from sheep blood; test: Hemolytic activity
Experimental: Toxicity of biaryl compounds was tested against erythrocytes as well as eukaryotic epithelial, dermal, and macrophage cell lines in vitro.
Toxicity of lead antimicrobial candidates was tested against erythrocytes, as well as eukaryotic epithelial and dermal cell lines in vitro.

[5] = system: R. equi strains 701+, 701−, 703, and 5331; test: MIC/MBC broth microdilution against R. equi; format: cell-based, Rhodococcus equi
38 MRSA strains [6] = test: microbe, parasite or virus in culture; details: Staphylococcus aureus
38 MRSA strains [7] = system: 38 MRSA strains
[8] = system: 21 S. epidermidis strains; test: MIC90/MBC90 broth microdilution against 21 S. epidermidis strains; format: cell-based, Staphylococcus epidermidis; details: Staphylococcus epidermidis
Text: We are currently in the process of evaluating the MICs and MBCs for 5-32.

[9] = system: seven S. pneumoniae strains; test: MIC/MBC against panel of S. pneumoniae strains; format: cell-based; details: Streptococcus pneumoniae
Experimental: The activity of compounds against Gram-positive pathogens, S. pyogenes and S. pneumoniae, identified through the preliminary screen (FIG. 15) was evaluated against a panel of these pathogens.

MRSA strain USA300 [10] = test: Kill kinetics with planktonic log-phase MRSA; format: cell-based, Staphylococcus aureus; details: log-phase USA300, 24 hours
[11] = system: MRSA strains USA300 and SALL06; test: Kill kinetics with stationary-phase MRSA; format: cell-based, Staphylococcus aureus
[12] = system: E. faecalis strains 49532 and 51575; test: MIC/MBC broth microdilution against E. faecalis; format: cell-based, Enterococcus faecalis; details: Enterococcus faecalis
[13] = system: MRSA strains SAD05 and 0632 in a biofilm; test: MBEC High-throughput biofilm assay; format: cell-based, Staphylococcus aureus; details: 6 hours
[14] = read-out: MBC90, 38 MRSA strains, MH broth

O=C(Nc1ccc(Cl)c(Cl)c1)c1cc(Cl)cc(Cl)c1O [3,3′,4′,5-tetrachlorosalicylanilide, reference compound]
membrane disruption (DiSC3(5) fluorescence) (MRSA strain USA300 [1]): positive membrane disruption

CC(=O)Oc1c(Br)cc(Br)cc1-c1cc(Br)cc(Br)c1OC(C)=O [C58-2]
A549 LD50 (A549): 74 µM | H2122 LD50 (H2122): 87 µM | H2073 LD50 (H2073): 36 µM | H460 LD50 (H460): 51 µM

[Na+].[Na+].[O-]c1c(Br)cc(Br)cc1-c1cc(Br)cc(Br)c1[O-] [C58Na]
16HBE LD50 [2]: 92.3 µg/mL | activity in the absence of DMSO versus with 2.5% DMSO [3]: at least comparable activity | antimicrobial activity (MIC and MBC) compared to the parent compound [3]: poor activity | onset of hemolysis [4]: 32 to 48 µg/mL

CC(=O)Oc1c(Cl)cc(Cl)cc1-c1cc(Cl)cc(Cl)c1OC(C)=O [C59-2]
A549 LD50 (A549): 74 µM | H2122 LD50 (H2122): 99 µM | MBC ([5]; strain 701+): 16 µg/mL (≈ 39.2 µM) | MIC ([5]; strain 701+): 4 µg/mL (≈ 9.8 µM) | MBC ([5]; strain 701−): 16 µg/mL (≈ 39.2 µM) | MIC ([5]; strain 701−): 4 µg/mL (≈ 9.8 µM) | MBC ([5]; strain 703): 16 µg/mL (≈ 39.2 µM) | MIC ([5]; strain 703): 2 µg/mL (≈ 4.9 µM) | MBC ([5]; strain 5331): 16 µg/mL (≈ 39.2 µM) | MIC ([5]; strain 5331): 4 µg/mL (≈ 9.8 µM) | antimicrobial activity (MIC and MBC) compared to the parent compound [3]: Reduction of activity | H2073 LD50 (H2073): 45 µM | H460 LD50 (H460): 73 µM

[Li+].[Li+].[O-]c1c(Cl)cc(Cl)cc1-c1cc(Cl)cc(Cl)c1[O-] [C59Li]
16HBE LD50 [2]: 24.4 µg/mL | activity in the absence of DMSO versus with 2.5% DMSO [3]: at least comparable activity | antimicrobial activity (MIC and MBC) compared to the parent compound [3]: enhanced activity; also recorded: superior activity over C59

Nc1c(-c2c(O)ccc3ccccc23)cc(Cl)c(Cl)c1Cl [C119]
A549 LD50 (A549): 52 µM | H2122 LD50 (H2122): 58 µM | H2073 LD50 (H2073): 33 µM | H460 LD50 (H460): 37 µM

CCC[C@@H]1C[C@@H](C(=O)N[C@@H]([C@H]2O[C@H](SC)[C@H](O)[C@@H](O)[C@H]2O)[C@H](C)Cl)N(C)C1 [Clindamycin hydrochloride]
MIC90 (38 MRSA strains [6]; 38 MRSA strains, MH broth): ≥ 32 µg/mL | MBC (38 MRSA strains [6]; [14]): ≥ 32 µg/mL | MBC90 (38 MRSA strains [7]; MH broth, hydrochloride): >32 µg/mL | MIC90 (38 MRSA strains [7]; MH broth, hydrochloride): >32 µg/mL

CCCCCCCCCC(=O)N[C@@H](Cc1c[nH]c2ccccc12)C(=O)N[C@H](CC(N)=O)C(=O)N[C@@H](CC(=O)O)C(=O)N[C@@H]1C(=O)NCC(=O)N[C@@H](CCCN)C(=O)N[C@@H](CC(=O)O)C(=O)N[C@H](C)C(=O)N[C@@H](CC(=O)O)C(=O)NCC(=O)N[C@H](CO)C(=O)N[C@@H]([C@H](C)CC(=O)O)C(=O)N[C@@H](CC(=O)c2ccccc2N)C(=O)O[C@@H]1C [Daptomycin hydrochloride]
MBC90 (38 MRSA strains [7]; MH broth): >32 µg/mL | MBC90 (38 MRSA strains [7]; cation adjusted MH broth): 2 µg/mL

CC(=O)NC[C@H]1CN(c2ccc(N3CCOCC3)c(F)c2)C(=O)O1 [Linezolid]
MIC90 (38 MRSA strains [6]; 38 MRSA strains, MH broth): 4 µg/mL (≈ 11.9 µM) | MBC (38 MRSA strains [6]; [14]): > 32 µg/mL

CO[C@H]1/C=C/O[C@@]2(C)Oc3c(C)c(O)c4c(O)c(c(/C=N/N5CCN(C)CC5)c(O)c4c3C2=O)NC(=O)/C(C)=C\C=C\[C@H](C)[C@H](O)[C@@H](C)[C@@H](O)[C@@H](C)[C@H](OC(C)=O)[C@@H]1C [Rifampicin, reference compound]
MBC ([5]; Rhodococcus (subgen. Prescottella) equi, strain 701+, read-out: MBC): > 192 µg/mL | MIC ([5]; Rhodococcus (subgen. Prescottella) equi, strain 701+, read-out: MIC): 0.5 µg/mL (≈ 0.608 µM) | MBC ([5]; Rhodococcus (subgen. Prescottella) equi, strain 701−, read-out: MBC): > 192 µg/mL | MIC ([5]; Rhodococcus (subgen. Prescottella) equi, strain 703): 0.125 µg/mL (≈ 0.152 µM) | MBC ([5]; Rhodococcus (subgen. Prescottella) equi, strain 703, read-out: MBC): 80 µg/mL (≈ 97.2 µM) | MIC ([5]; Rhodococcus (subgen. Prescottella) equi, strain 5331): 0.125 µg/mL (≈ 0.152 µM) | MBC ([5]; Rhodococcus (subgen. Prescottella) equi, strain 5331, read-out: MBC): 32 µg/mL (≈ 38.9 µM) | MIC ([5]; strain 701−): 0.5 µg/mL (≈ 0.608 µM)

CN[C@H](CC(C)C)C(=O)N[C@H]1C(=O)N[C@@H](CC(N)=O)C(=O)N[C@H]2C(=O)N[C@H]3C(=O)N[C@H](C(=O)N[C@H](C(=O)O)c4cc(O)cc(O)c4-c4cc3ccc4O)[C@H](O)c3ccc(c(Cl)c3)Oc3cc2cc(c3O[C@@H]2O[C@H](CO)[C@@H](O)[C@H](O)[C@H]2O[C@H]2C[C@](C)(N)[C@H](O)[C@H](C)O2)Oc2ccc(cc2Cl)[C@H]1O [Vancomycin hydrochloride, reference compound]
MIC90 [8]: 4 µg/mL | MBC ([8]; read-out: MBC90): 8 µg/mL | change of activity with reduction in pH from 7.4 to 5.5 ([3]; pH 7.4, 6.5, 5.5): does not exhibit any improvement | MIC90 (38 MRSA strains [6]): 2 µg/mL | MBC (38 MRSA strains [6]; read-out: MBC90): 16 µg/mL | MBC ([9]; read-out: MBCs): 0.25 to 0.5 µg/mL | MIC ([9]; read-out: MICs): 0.25 to 0.5 µg/mL | dose response of bacterial eradication (MRSA strain USA300 [10]): absence of dose response | bacterial counts versus untreated controls ([11]; at 24 hours, 0.5-2.0): no difference | eradication of stationary-phase bacteria ([11]; stationary-phase USA300 and SALL06, up to 24 hours): fails to eradicate the bacterial burden completely | MBC ([12]; strain 49532): > 512 µg/mL | MIC ([12]; strain 49532): 1 µg/mL | MBC ([12]; strain 51575): > 192 µg/mL | MIC ([12]; strain 51575): 192 µg/mL | activity against biofilm mode bacteria [13]: Lack of activity
